Results as given in PMC11173508, “Pharmacokinetics and Tissue Distribution of Itampolin A following Intragastric and Intravenous Administration in Rats Using Ultra-High-Performance Liquid Chromatography–Tandem Mass Spectrometry” (Molecules, 2024).

Assay: Stability of itampolin A in biological samples under different storage conditions
Assay type: physicochemical, rat
Details: n = 5, in %
Procedure: The stability of itampolin A was investigated by analyzing five replicates of the samples at three QC levels (3, 40, and 1280 ng/mL) under different storage conditions: (1) 4 h exposure at room temperature, (2) 24 h storage in the autosampler at 4 °C, (3) three freeze–thaw cycles, and (4) storage at −80 °C for 30 days. The samples were considered stable if the average percentage concentration deviation was within 15% of the actual value.

COc1c(Br)cc(C[C@H](NC(=O)Cc2ccc(OCCCNC(C)=O)cc2)C(=O)NCCc2cc(Br)c(O)c(Br)c2)cc1Br [itampolin A, Itampolin A]
Stability, Autosampler 4 °C for 24 h (brain, spiked 3 ng/mL): 98.3 ± 5.8
Stability, Long-Term (at −80 °C for 30 Days) (brain, spiked 3 ng/mL): 94.3 ± 8.7
Stability, Short-Term (at Room Temperature for 4 h) (brain, spiked 3 ng/mL): 112.6 ± 3.9
Stability, Three Freeze–Thaw Cycles (brain, spiked 3 ng/mL): 99.5 ± 6.3
Stability, Autosampler 4 °C for 24 h (brain, spiked 40 ng/mL): 108.0 ± 4.0
Stability, Long-Term (at −80 °C for 30 Days) (brain, spiked 40 ng/mL): 95.0 ± 2.9
Stability, Short-Term (at Room Temperature for 4 h) (brain, spiked 40 ng/mL): 99.9 ± 10.9
Stability, Three Freeze–Thaw Cycles (brain, spiked 40 ng/mL): 93.7 ± 7.8
Stability, Autosampler 4 °C for 24 h (brain, spiked 1280 ng/mL): 96.8 ± 8.3
Stability, Long-Term (at −80 °C for 30 Days) (brain, spiked 1280 ng/mL): 94.6 ± 5.7
Stability, Short-Term (at Room Temperature for 4 h) (brain, spiked 1280 ng/mL): 99.7 ± 2.9
Stability, Three Freeze–Thaw Cycles (brain, spiked 1280 ng/mL): 104.3 ± 2.6
Stability, Autosampler 4 °C for 24 h (heart, spiked 3 ng/mL): 87.2 ± 7.2
Stability, Long-Term (at −80 °C for 30 Days) (heart, spiked 3 ng/mL): 103.3 ± 6.8
Stability, Short-Term (at Room Temperature for 4 h) (heart, spiked 3 ng/mL): 97.7 ± 3.6
Stability, Three Freeze–Thaw Cycles (heart, spiked 3 ng/mL): 94.3 ± 6.5
Stability, Autosampler 4 °C for 24 h (heart, spiked 40 ng/mL): 103.9 ± 3.5
Stability, Long-Term (at −80 °C for 30 Days) (heart, spiked 40 ng/mL): 97.4 ± 5.3
Stability, Short-Term (at Room Temperature for 4 h) (heart, spiked 40 ng/mL): 100.3 ± 2.6
Stability, Three Freeze–Thaw Cycles (heart, spiked 40 ng/mL): 108.3 ± 9.7
Stability, Autosampler 4 °C for 24 h (heart, spiked 1280 ng/mL): 94.0 ± 7.3
Stability, Long-Term (at −80 °C for 30 Days) (heart, spiked 1280 ng/mL): 95.3 ± 5.4
Stability, Short-Term (at Room Temperature for 4 h) (heart, spiked 1280 ng/mL): 89.3 ± 5.3
Stability, Three Freeze–Thaw Cycles (heart, spiked 1280 ng/mL): 98.9 ± 4.9
Stability, Autosampler 4 °C for 24 h (intestine, spiked 3 ng/mL): 99.5 ± 5.3
Stability, Long-Term (at −80 °C for 30 Days) (intestine, spiked 3 ng/mL): 96.3 ± 7.9
Stability, Short-Term (at Room Temperature for 4 h) (intestine, spiked 3 ng/mL): 100.1 ± 6.1
Stability, Three Freeze–Thaw Cycles (intestine, spiked 3 ng/mL): 108.7 ± 2.9
Stability, Autosampler 4 °C for 24 h (intestine, spiked 40 ng/mL): 106.4 ± 8.9
Stability, Long-Term (at −80 °C for 30 Days) (intestine, spiked 40 ng/mL): 85.9 ± 7.4
Stability, Short-Term (at Room Temperature for 4 h) (intestine, spiked 40 ng/mL): 101.3 ± 2.3
Stability, Three Freeze–Thaw Cycles (intestine, spiked 40 ng/mL): 98.3 ± 5.0
Stability, Autosampler 4 °C for 24 h (intestine, spiked 1280 ng/mL): 102.3 ± 4.1
Stability, Long-Term (at −80 °C for 30 Days) (intestine, spiked 1280 ng/mL): 89.0 ± 7.9
Stability, Short-Term (at Room Temperature for 4 h) (intestine, spiked 1280 ng/mL): 99.7 ± 3.3
Stability, Three Freeze–Thaw Cycles (intestine, spiked 1280 ng/mL): 107.5 ± 8.2
Stability, Autosampler 4 °C for 24 h (kidney, spiked 3 ng/mL): 93.0 ± 8.9
Stability, Long-Term (at −80 °C for 30 Days) (kidney, spiked 3 ng/mL): 89.1 ± 7.1
Stability, Short-Term (at Room Temperature for 4 h) (kidney, spiked 3 ng/mL): 98.6 ± 4.0
Stability, Three Freeze–Thaw Cycles (kidney, spiked 3 ng/mL): 97.1 ± 6.7
Stability, Autosampler 4 °C for 24 h (kidney, spiked 40 ng/mL): 100.7 ± 7.6
Stability, Long-Term (at −80 °C for 30 Days) (kidney, spiked 40 ng/mL): 97.3 ± 8.5
Stability, Short-Term (at Room Temperature for 4 h) (kidney, spiked 40 ng/mL): 106.8 ± 7.3
Stability, Three Freeze–Thaw Cycles (kidney, spiked 40 ng/mL): 98.4 ± 5.0
Stability, Autosampler 4 °C for 24 h (kidney, spiked 1280 ng/mL): 92.7 ± 4.2
Stability, Long-Term (at −80 °C for 30 Days) (kidney, spiked 1280 ng/mL): 110.4 ± 5.9
Stability, Short-Term (at Room Temperature for 4 h) (kidney, spiked 1280 ng/mL): 99.8 ± 8.1
Stability, Three Freeze–Thaw Cycles (kidney, spiked 1280 ng/mL): 98.8 ± 3.6
Stability, Autosampler 4 °C for 24 h (liver, spiked 3 ng/mL): 96.3 ± 8.2
Stability, Long-Term (at −80 °C for 30 Days) (liver, spiked 3 ng/mL): 93.7 ± 5.1
Stability, Short-Term (at Room Temperature for 4 h) (liver, spiked 3 ng/mL): 98.2 ± 7.5
Stability, Three Freeze–Thaw Cycles (liver, spiked 3 ng/mL): 103.3 ± 4.7
Stability, Autosampler 4 °C for 24 h (liver, spiked 40 ng/mL): 98.8 ± 4.8
Stability, Long-Term (at −80 °C for 30 Days) (liver, spiked 40 ng/mL): 87.1 ± 6.8
Stability, Short-Term (at Room Temperature for 4 h) (liver, spiked 40 ng/mL): 93.5 ± 2.5
Stability, Three Freeze–Thaw Cycles (liver, spiked 40 ng/mL): 96.4 ± 8.1
Stability, Autosampler 4 °C for 24 h (liver, spiked 1280 ng/mL): 113.6 ± 4.2
Stability, Long-Term (at −80 °C for 30 Days) (liver, spiked 1280 ng/mL): 97.9 ± 5.2
Stability, Short-Term (at Room Temperature for 4 h) (liver, spiked 1280 ng/mL): 102.9 ± 6.5
